Test results taken from a melting point compilation (Tetko et al.; mined from patent text by program, amines drawn as free bases though some values may be those of a salt).

Compound | melting point
N#CCCCCn1nc(C(N)=O)c2ccccc21 | 182 to 185 °C
Cn1nc(-c2cc([N+](=O)[O-])c(Cl)cc2F)c(Cl)c1S(C)=O (configuration not stated) | 151 °C
CC(C)(C)C(=O)OCn1c(-c2cnn(-c3c(Cl)cc(C(F)(F)F)cc3Cl)n2)nc(C#N)c1C#N | 103 to 104 °C
COC(=O)C1Cc2c(cccc2-c2ccccc2)CN1 (configuration not stated) | 149 to 150 °C
C/C(=C\CNC(=O)c1ccccc1)c1ccccc1 | 139 °C
COC(=O)c1ccc2sc(C(=O)OC)c(O)c2c1Cl | 127 to 131 °C
O=C(O)CCCCCCCc1nn(-c2ccccc2)c2c1CCC2 | 55 to 57 °C
CN(C)CCCN=C1CC(c2ccc(Cl)c(Cl)c2)Cc2c1c(=O)c1cc(Cl)ccc1n2O (configuration not stated) | 208 to 210 °C
CCC(=O)OCC1OC(n2cc(F)c(=O)n(C(=O)c3cccc(OC)c3OC)c2=O)CC1OC(=O)CC (configuration not stated) | 84.5 to 86 °C
CCCc1nc(NCCOC(N)=O)nc(N2CCOCC2)n1 | 139 to 140 °C
N[C@@H](Cc1ccc(OCc2ccccc2)cc1)C(=O)NCCN1CCCCC1 | 58 to 61 °C
O=S(=O)(c1cccc(F)c1)N1CCCC1c1ccc(F)cc1 (racemic) | 101 °C
COc1ccc(C(=O)Nc2c(Cl)cncc2Cl)c2c1OCC2CC(=O)NCc1ccccc1 (configuration not stated) | 284 to 286 °C
CCCCC(OC)c1nc2c(N)nc3ccccc3c2n1CC(C)C (configuration not stated) | 125 to 128 °C
CC(C)(C)NNC(=O)c1ccccc1 | 94 to 95 °C
CCOc1nc(C)nc(N2CCc3ccccc3CC2)c1C#N | 106 to 109 °C
CC(C)CCCOc1c(-c2ccc(S(C)(=O)=O)cc2)cnn(-c2ccc(F)cc2)c1=O | 123 to 125 °C
Cc1cc(-c2cccc(C(F)(F)F)c2)c2ncc(OC(F)F)nc2c1 | 105 to 106 °C
CCOP(=O)(OCC)C(CCC(C(N)=O)P(=O)(OCC)OCC)C(N)=O (configuration not stated) | 232 to 234 °C
CC(C)CC(NC(=O)C(Cc1ccccn1)NC(=O)C(Cc1cccc2ccccc12)NC(=O)OCc1ccccc1)C(O)CC(=O)NCCc1ccccn1 (mixture of isomers) | 128 to 133 °C
CCCOc1cc2ccccc2c2c(=O)c(-c3ccoc3)c[nH]c12 | 252 to 254 °C
C=CCc1c(SC(C)=O)[nH]c(-c2ccc(Cl)cc2)c1-c1ccc(Cl)cc1 | 131 to 132 °C

Compound | melting point
COCOc1cc(F)ccc1-c1cc(-c2cccc([N+](=O)[O-])c2)c(C#N)c(NC(=O)c2ccno2)n1 | 161 to 162 °C
C[C@@H]1CN(c2ccc(C(F)(F)F)cn2)C[C@H](C)N1CC(=O)N1CC=C(c2ccc3ccccc3n2)CC1 | 94 to 95 °C
CN1CCN(c2cc(N)ccc2Br)CC1 | 120 to 122 °C
CN1C(=O)CC[C@H]1COc1cccnc1 | 73 to 74 °C
COc1cc2ncc(N[C@H]3CC[C@@H](O)CC3)nc2cc1OC | 65 to 67 °C
COC(=O)c1ccc(C(O)C#Cc2ccccc2)cc1 (configuration not stated) | 48 to 50 °C
CCCCc1ncc(/C=C(/CO)Cc2cccs2)n1Cc1ccccc1Cl | 114 to 115 °C
O=C(O)C1CCc2c(c3cc(F)ccc3n2C(=O)c2ccccc2)C1 (configuration not stated) | 218 to 220 °C
CCNC(=O)CCCNC(=O)OC(C)(C)C | 82 to 83 °C
Cc1ccsc1C(=O)Cc1ccccc1[N+](=O)[O-] | 85 to 86.5 °C
Oc1cc2c(cc1CNc1ccc(F)cc1F)OCC2 | 119 to 121 °C
CC(=O)Oc1cn(C(C)=O)c2ccc(F)c(Cl)c12 | 168 to 169 °C
COc1ccc(C(=O)Nc2ccc(C(C)(C)C#N)cc2)cc1 | 169 to 171 °C
N#Cc1ccc(-c2cc(N(Cc3ccc(O)cc3)n3cnnc3)ccc2C#N)cc1 | 221 to 223 °C
Cc1cc(C)cc(P(=O)(O)O)c1 | 197 to 199 °C
O=C(C[C@@H](c1cc(F)cc(F)c1)C(F)(F)F)N1C(=O)OC[C@@H]1Cc1ccccc1 | 127 to 128 °C
O=C(NCC(c1ccccc1)c1ccccc1)C1Cc2ccccc2N1S(=O)(=O)c1ccc(-c2ccc(F)cc2)cc1 (configuration not stated) | 80 to 82 °C
CC(O)Cc1ccc2oc(=O)[nH]c2c1 (configuration not stated) | 133 to 134 °C
O=S(=O)(Cl)c1ccc2oc(-c3ccncc3)cc2c1 | 210 °C
CCCCCCc1ccc2c3ccc(CO)cc3n(C)c2c1 | 90 to 91 °C
COc1ccc(C(=O)NCCCCCCCCCNC(=O)c2ccc(OC)cc2)cc1 | 156 to 157 °C

Continued, values first:

melting point | Compound
346 to 348 °C | Cc1c([N+](=O)[O-])c([N+](=O)[O-])c(Cl)c2c1=NC(=O)C(=O)N=2
68 to 70 °C | COc1cccc(Nc2ccnc(Nc3cc(OC)c(OC)c(SC)c3)n2)c1
126 to 136 °C | CC(C)C(=NO)c1ccc(Br)cc1
133 to 134 °C | CCCc1nc(C(=O)C(C)C)c(C#N)n1Cc1ccc(-c2ccccc2-c2nnnn2C(c2ccccc2)(c2ccccc2)c2ccccc2)cc1
192 to 194 °C | CN1CCN(Cc2ccccc2)CC(NC(=O)c2n[nH]c3ccccc23)C1 (configuration not stated)
197 to 198 °C | CC(C)n1nc(-c2cc(C#N)c(N)nc2-c2ccccc2)ccc1=O
134 °C | CCN(CC)C(=O)c1cc2cc(OC)c(OC)cc2c(-c2ccccc2)n1
189 to 191 °C | O=S1(=O)N=CN(C2CCCC2)c2cc(Cl)c(Cl)cc21
125 to 126 °C | CCOC(=O)c1cn2cnc3ccccc3c2c1C(=O)OCC
188 to 190 °C | COc1cc(-c2ccc(-c3ccc(N)c(OC)c3)o2)ccc1N
278 to 280 °C | CN1CCN(c2ccc(N/C=C3\C(=O)NC(=O)c4ccc(C(=O)O)cc43)cc2)CC1
163 °C | COc1ccc(S(=O)C(C(=O)NO)C(C)C)cc1 (configuration not stated)
132 to 136 °C | C#CCOc1cc2c(cc1OC)C(=C(C#N)C(=O)OCC)CC2(C)C
200 to 202 °C | CCCCc1ncc(-c2cccc(C(=O)O)c2)n1Cc1ccccc1Cl
158 to 160 °C | COc1ccc(C2SCc3c(sc(N)c3C(=O)c3ccc(Cl)cc3)S2)cc1 (configuration not stated)
158 to 161 °C | CN(C)C1CCC(Nc2nc3cc(Cl)c(Cl)cc3nc2-c2cccnc2)CC1 (configuration not stated)
125 °C | O=C1CNc2ncc(-c3ccc(C(=O)N4CCC[C@H]4CN4CCCC4)cc3)cc2N1Cc1cc(F)ccc1F
214 to 215 °C | C=CCOc1c(Cl)cc(-c2ccc(=O)[nH]n2)cc1Cl
89 to 92 °C | O=C(CN1CCN(C(=O)CCCCCS)CC1)Nc1nc2ccccc2s1
145 to 148 °C | CNC(=S)Nc1cc(F)ccc1N1CCOCC1

melting point | Compound
48 to 51 °C | O=C(O)[C@H]1CCCN1C(=O)C(F)(F)F
130 to 132 °C | O=C(O)C1CCc2ccccc2N1C(=O)CCS (configuration not stated)
112 °C | CCCSc1nccn2c(=O)c(C(=O)OCC)cnc12
300 to 305 °C | CCn1cc(C(=O)O)c(=O)c2cc(F)c(N3CCNC(c4sc5ccc(Cl)cc5c4C)C3)cc21 (configuration not stated)
116 to 117 °C | N=C(NO)c1ccc(-c2ccc(Br)o2)cc1
142 to 145 °C | Cc1c2c(cn1CC(N)=O)CN=C(c1ccccc1Cl)c1cc(Cl)ccc1-2
215 to 217 °C | COC(=O)c1c(CC#N)c(-c2ccc3c(c2)OCO3)c2c3c(ccc2c1C)OCO3
125 to 140 °C | Nc1cccc(-c2ccc(CCCN3CCN(CCc4ccccc4)CC3)cc2)n1
217 to 219 °C | Nc1nc(-c2ccc(Cl)cc2)nc(N2CCCC2)n1
216 to 219 °C | Cc1c(O)ccc2c(-c3ccccc3F)noc12
130 to 132 °C | CCOC(=O)CNC(=O)N(O)C1CC(c2ccc(F)cc2)C1 (configuration not stated)
132 to 133 °C | COc1ccc2c(c1)c(CCNC(C)=O)cn2S(=O)(=O)c1ccc(C)cc1
348 to 349 °C | CCOc1c(OC)ccc2nc3[nH]cnc(=O)c3cc12
133 °C | Cc1cc(OC(C)c2sc(-c3ccc(C(F)(F)F)cc3F)nc2C)ccc1OC(C)(C)C(=O)O (configuration not stated)
206 to 209 °C | O=c1c2c(Cc3cccc(C(F)(F)F)c3)n[nH]c2c2cccnc2n1-c1cccc(OC(F)(F)F)c1
90 to 92 °C | CC1Oc2ccccc2CC1NNc1ncnc2c1ncn2C1OC(CO)C(O)C1O (configuration not stated)
172 to 175 °C | CS(=O)(=O)c1ccc(-c2nc(C(F)(F)F)nc(N=[N+]=[N-])c2-c2ccccc2)cc1
80 to 82 °C | c1csc(N2CCN(Cc3ccc4sccc4c3)CC2)n1
155 to 156 °C | O=C(Nc1ccsc1)c1ccccc1
129 to 130 °C | COc1ccc(C2=C(c3ccc(S(C)(=O)=O)cc3)CCC2)cc1

melting point | Compound
260 °C | CCCCc1c[nH]c2ccc(CO)cc2c1=O
184 to 186 °C | CN1C(=O)C(C)(C)c2ccc(C(=O)Nc3ccccc3)cc21
180 to 181 °C | Cc1ccc(Cl)c(Nc2ccccc2-c2nnco2)c1Cl
86 to 88 °C | CN(C)C(=O)OC1CCN(c2ncc(-c3ccccc3Cl)cn2)CC1
> 250 °C | ON=C1CCn2c(-c3ccc(Br)cc3)nc3c(Cl)ccc1c32
154 to 155 °C | CC(C)C(S)C(=O)NC1(C(=O)NC(Cc2ccc(-c3ccccc3)s2)C(=O)O)CCCC1 (configuration not stated)
105 to 109 °C | CCOC(=O)c1ccc2ccccn2c1=O
61 to 63 °C | CC1CCCc2cc([N+](=O)[O-])cnc21 (configuration not stated)
260 to 262 °C | CC(C)(C)NC(=O)NCc1ccc2c(c1)CN(C1CCC(=O)NC1=O)C2=O (configuration not stated)
186 to 188 °C | Cc1c(NCCN)nc(=O)n(C)c1N
165 °C | CNS(=O)(=O)c1ccc(NC=C2C(=O)Nc3ccc4ncsc4c32)cc1CCOCCO
271 to 272 °C | O=C1Nc2cc(Cl)c(Cl)cc2C1=O
> 300 °C | Nc1c(Cl)cc2nc(O)c(O)nc2c1N
46.5 to 47.5 °C | CCCNc1nnc(C)o1
224 to 225 °C | O=c1[nH]c2cc([N+](=O)[O-])cnc2n1-c1ccc2c(c1)OCO2
133 to 136 °C | C[C@H](NC(=O)[C@@H]1CCCN1CCC(=O)O)C(=O)N1CCC[C@H]1C(=O)O
190 to 192 °C | c1ccc(Cn2ccc3nnc4ccccc4c32)cc1
75 to 77 °C | CCCCSc1cc(C(=O)O)cc(S(N)(=O)=O)c1-c1ccccc1
178 °C | O=C(Oc1ccccc1)OC1C2=C(SCCS2)C(=O)N1c1ccc(Cl)cn1 (configuration not stated)
